What was measured:
soybean = assay: Test E preemergence; format: in vivo, Glycine max; conditions: for Soybean plant response rating: scale 0 to 100 (0 no effect, 100 complete control)
From the text: (§1) Seeds of plant species selected from corn (Zea mays), soybean (Glycine max), velvetleaf (Abutilon theophrasti), lambsquarters (Chenopodium album), wild poinsettia (Euphorbia heterophylla), palmer pigweed (Amaranthus palmeri), waterhemp (common waterhemp, Amaranthus rudis), surinam grass (Brachiaria decumbens), large (Lg) crabgrass (Digitaria sanguinalis), Brazilian crabgrass (Digitaria horizontalis), fall panicum (Panicum dichotomiflorum), giant foxtail (Setaria faberii), green foxtail (Setaria viridis), goosegrass (Eleusine indica), johnsongrass (Sorghum halepense), ragweed (common ragweed, Ambrosia elatior), barnyardgrass (Echinochloa crus-galli), sandbur (southern sandbur, Cenchrus echinatus), arrowleaf sida (Sida rhombifolia), Italian ryegrass (Lolium multiflorum), dayflower (Virginia (VA) dayflower, Commelina virginica), field bindweed (Convolvulus arvensis), morningglory (Ipomoea coccinea), nightshade (eastern black nightshade, Solanum ptycanthum), kochia (Kochia scoparia), yellow nutsedge (Cyperus esculentus), cocklebur (common cocklebur, Xanthium strumarium), smartweed (ladysthumb smartweed, and hairy beggarticks (Bidens pilosa), were planted into a silt loam soil and treated preemergence with test chemicals formulated in a non-phytotoxic solvent mixture which included a surfactant.
(§2) At the same time, plants from these crop and weed species and also horseweed (Canada horseweed, Conyza canadensis), waterhemp_RES1, (ALS & Triazine resistant common waterhemp, Amaranthus rudis), and waterhemp_RES2, (ALS & HPPD resistant common waterhemp, Amaranthus rudis) were planted in pots containing Redi-Earth® planting medium (Scotts Company, 14111 Scottslawn Road, Marysville, Ohio 43041) comprising spaghnum peat moss, vermiculite, wetting agent and starter nutrients were treated with postemergence applications of test chemicals formulated in the same manner. Plants ranged in height from 2 to 18 cm for postemergence treatments (1- to 4-leaf stage). Treated plants and controls were maintained in a greenhouse for 14 to 21 days, after which time all species were compared to controls and visually evaluated. Plant response ratings, summarized in Table E, are based on a scale of 0 to 100 where 0 is no effect and 100 is complete control. A dash (-) response means no test result.

johnsongrass = assay: Test E preemergence; format: in vivo, Sorghum halepense; conditions: for Johnsongrass plant response rating: scale 0 to 100 (0 no effect, 100 complete control)
From the text: as §1, §2

ragweed = assay: Test E preemergence; format: in vivo, Ambrosia elatior; conditions: for Ragweed plant response rating: scale 0 to 100 (0 no effect, 100 complete control)
From the text: as §1, §2

arrowleaf sida = assay: Test E preemergence; format: in vivo, Sida rhombifolia; conditions: for Arrowleaf Sida plant response rating: scale 0 to 100 (0 no effect, 100 complete control)
From the text: as §1, §2

Italian ryegrass = assay: Test E preemergence; format: in vivo, Lolium multiflorum; conditions: for Ryegrass, Italian plant response rating: scale 0 to 100 (0 no effect, 100 complete control)
From the text: as §1, §2

dayflower = assay: Test E preemergence; format: in vivo, Commelina virginica; conditions: for Dayflower, VA plant response rating: scale 0 to 100 (0 no effect, 100 complete control)
From the text: as §1, §2

field bindweed = assay: Test E preemergence; format: in vivo, Convolvulus arvensis; conditions: for Field Bindweed plant response rating: scale 0 to 100 (0 no effect, 100 complete control)
From the text: as §1, §2

hairy beggarticks = assay: Test E preemergence; format: in vivo, Bidens pilosa; conditions: for Beggarticks plant response rating: scale 0 to 100 (0 no effect, 100 complete control)
From the text: as §1, §2

rice = assay: Test C flooded paddy test; format: in vivo, Oryza sativa; conditions: Flood, scale 0 to 100 (0 no effect, 100 complete control), 13 to 15 days
Procedure, shortened: (§3)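 Flooded 3 cm over soil; compound into paddy water; depth kept constant. Greenhouse 13–15 d.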

ducksalad = assay: Test C flooded paddy test; format: in vivo, Heteranthera limosa; conditions: Flood, scale 0 to 100 (0 no effect, 100 complete control), 13 to 15 days
Procedure, shortened: as §3

[1] = 125 g ai/ha, scale 0 to 100, 0 no effect, 100 complete control
[2] = Preemergence, 62 g ai/ha, scale 0 to 100, 0 no effect, 100 complete control
[3] = preemergence, 125 g ai/ha, scale 0 to 100, 0 no effect, 100 complete control
[4] = 8 g ai/ha, scale 0 to 100, 0 is no effect, 100 is complete control
[5] = 8 g ai/ha, preemergence, scale 0 to 100, 0 is no effect, 100 is complete control
[6] = 250 g ai/ha, scale 0 to 100, 0 no effect, 100 complete control
[7] = preemergence, 250 g ai/ha, scale 0 to 100, 0 no effect, 100 complete control

Compound	Soybean plant response rating (soybean; 31 g ai/ha)	Soybean plant response rating (soybean; 62 g ai/ha)	Plant response rating, Soybean (soybean; [1])	Johnsongrass plant response rating (johnsongrass; 31 g ai/ha)	Johnsongrass plant response rating (johnsongrass; 62 g ai/ha)	Plant response rating, Johnsongrass (johnsongrass; [1])	Ragweed plant response rating (ragweed; 31 g ai/ha)	Ragweed plant response rating (ragweed; 62 g ai/ha)	Plant response rating, Ragweed (ragweed; [1])	Arrowleaf Sida plant response rating (arrowleaf sida; 31 g ai/ha, preemergence)	Plant response rating, Arrowleaf Sida (arrowleaf sida; [3])	Ryegrass, Italian plant response rating (Italian ryegrass; 31 g ai/ha)	Ryegrass, Italian plant response rating (Italian ryegrass; 62 g ai/ha)	Plant response rating, Ryegrass, Italian (Italian ryegrass; [1])	Dayflower, VA plant response rating (dayflower; 31 g ai/ha)	Plant response rating, Dayflower, VA (dayflower; [1])	Field Bindweed plant response rating (field bindweed; 31 g ai/ha)	Field Bindweed plant response rating (field bindweed; 62 g ai/ha)	Plant response rating, Field Bindweed (field bindweed; [1])	Beggarticks plant response rating (hairy beggarticks; 31 g ai/ha, preemergence)	further results
Cc1cnc(Oc2cccc(C#N)c2-n2cc(C#N)cn2)nc1 [Compound 90]	15	30	35	0	0	15	50	50	75	50	90	0	0	0	0	0	50	70	65	5	Johnsongrass plant response rating (johnsongrass; 16 g ai/ha): 0; Ragweed plant response rating (ragweed; 16 g ai/ha): 0; Arrowleaf Sida plant response rating (arrowleaf sida; 16 g ai/ha, preemergence): 20; Plant response rating, Arrowleaf Sida (arrowleaf sida; [2]): 75; Ryegrass, Italian plant response rating (Italian ryegrass; 16 g ai/ha): 0; Dayflower, VA plant response rating (dayflower; 16 g ai/ha): 0; Field Bindweed plant response rating (field bindweed; 16 g ai/ha): 35; Beggarticks plant response rating (hairy beggarticks; 16 g ai/ha, preemergence): 0; Plant response rating, Beggarticks (hairy beggarticks; [2]): 10; Plant response rating, Beggarticks (hairy beggarticks; [3]): 30
Fc1cnc(Oc2cccc(C(F)F)c2-n2cc(C(F)(F)F)cn2)nc1 [Compound 164]	0	15	70	0	10	70	0	25	60	100	100	0	30	60	20	90	0	30	50	0	Plant response rating, Rice (rice; 31 g ai/ha): 0; Plant response rating, Rice (rice; 62 g ai/ha): 0; Plant response rating, Rice (rice; 125 g ai/ha): 0; Plant response rating, Rice (rice; 250 g ai/ha): 0; Plant response rating, Ducksalad (ducksalad; 31 g ai/ha): 0; Plant response rating, Ducksalad (ducksalad; 62 g ai/ha): 0; Plant response rating, Ducksalad (ducksalad; 125 g ai/ha): 75; Plant response rating, Ducksalad (ducksalad; 250 g ai/ha): 95; Arrowleaf Sida plant response rating (arrowleaf sida; 16 g ai/ha, preemergence): 40; Arrowleaf Sida plant response rating (arrowleaf sida; 62 g ai/ha, preemergence): 100; Dayflower, VA plant response rating (dayflower; 16 g ai/ha): 0; Dayflower, VA plant response rating (dayflower; 62 g ai/ha): 65; Field Bindweed plant response rating (field bindweed; 16 g ai/ha): 0; Beggarticks plant response rating (hairy beggarticks; 16 g ai/ha, preemergence): 0; Beggarticks plant response rating (hairy beggarticks; 62 g ai/ha, preemergence): 20; Plant response rating, Beggarticks (hairy beggarticks; [3]): 20
FC(F)c1cccc(Oc2ncc(Cl)cn2)c1-n1cc(C(F)(F)F)cn1 [Compound 170]	0	30	60	15	25	70	0	5	35	10	100	20	35	70	30	95	0	20	30	0	Plant response rating, Soybean (soybean; [4]): 0; Plant response rating, Johnsongrass (johnsongrass; [4]): 15; Plant response rating, Ragweed (ragweed; [4]): 0; Plant response rating, Arrowleaf Sida (arrowleaf sida; [5]): 0; Arrowleaf Sida plant response rating (arrowleaf sida; 16 g ai/ha, preemergence): 0; Arrowleaf Sida plant response rating (arrowleaf sida; 62 g ai/ha, preemergence): 90; Plant response rating, Ryegrass, Italian (Italian ryegrass; [4]): 0; Plant response rating, Dayflower, VA (dayflower; [4]): 0; Dayflower, VA plant response rating (dayflower; 16 g ai/ha): 30; Dayflower, VA plant response rating (dayflower; 62 g ai/ha): 80; Plant response rating, Field Bindweed (field bindweed; [4]): 0; Field Bindweed plant response rating (field bindweed; 16 g ai/ha): 0; Plant response rating, Beggarticks (hairy beggarticks; [5]): 0; Beggarticks plant response rating (hairy beggarticks; 16 g ai/ha, preemergence): 0; Beggarticks plant response rating (hairy beggarticks; 62 g ai/ha, preemergence): 0; Plant response rating, Beggarticks (hairy beggarticks; [3]): 0
Cc1cnc(Oc2cccc(C#N)c2-n2cc(C(F)(F)F)cn2)nc1 [Compound 180]	35	70	90	0	50	75	70	90	100	15	70	0	0	30	0	85	10	25	65	10	Plant response rating, Soybean (soybean; [6]): 98; Plant response rating, Johnsongrass (johnsongrass; [6]): 80; Plant response rating, Ragweed (ragweed; [6]): 100; Arrowleaf Sida plant response rating (arrowleaf sida; 62 g ai/ha, preemergence): 30; Plant response rating, Arrowleaf Sida (arrowleaf sida; [7]): 85; Plant response rating, Ryegrass, Italian (Italian ryegrass; [6]): 70; Dayflower, VA plant response rating (dayflower; 62 g ai/ha): 35; Plant response rating, Dayflower, VA (dayflower; [6]): 90; Plant response rating, Field Bindweed (field bindweed; [6]): 90; Beggarticks plant response rating (hairy beggarticks; 62 g ai/ha, preemergence): 20; Plant response rating, Beggarticks (hairy beggarticks; [3]): 40; Plant response rating, Beggarticks (hairy beggarticks; [7]): 90
NC(=S)c1cccc(Oc2ncc(Cl)cn2)c1-n1cc(Cl)cn1 [Compound 292]	0	40	50	15	20	35	0	0	35	5	80	0	0	35	20	85	5	30	65	15	Plant response rating, Soybean (soybean; [4]): 0; Plant response rating, Johnsongrass (johnsongrass; [4]): 0; Plant response rating, Ragweed (ragweed; [4]): 0; Plant response rating, Arrowleaf Sida (arrowleaf sida; [5]): 0; Arrowleaf Sida plant response rating (arrowleaf sida; 16 g ai/ha, preemergence): 0; Arrowleaf Sida plant response rating (arrowleaf sida; 62 g ai/ha, preemergence): 5; Plant response rating, Ryegrass, Italian (Italian ryegrass; [4]): 0; Plant response rating, Dayflower, VA (dayflower; [4]): 20; Dayflower, VA plant response rating (dayflower; 16 g ai/ha): 20; Dayflower, VA plant response rating (dayflower; 62 g ai/ha): 35; Plant response rating, Field Bindweed (field bindweed; [4]): 0; Field Bindweed plant response rating (field bindweed; 16 g ai/ha): 0; Plant response rating, Beggarticks (hairy beggarticks; [5]): 0; Beggarticks plant response rating (hairy beggarticks; 16 g ai/ha, preemergence): 0; Beggarticks plant response rating (hairy beggarticks; 62 g ai/ha, preemergence): 15; Plant response rating, Beggarticks (hairy beggarticks; [3]): 35

Reference: patent US9695155B2, “Herbicidal substituted pyrimidinyloxy benzene compounds” (E. I. DU PONT DE NEMOURS AND COMPANY, priority 2013, dated 2017)
